Experimental findings from PubChem BioAssay (NCI) are described below.

Assay in all cases: inhibition of tumour cell growth, NCI panel, 48 h
The test system of test [1] is RPMI-8226 leukemia.
Test [2] concerns MOLT-4 leukemia.
For test [3], the system named is UACC-62 melanoma.
In test [4] the test system is SNB-19 CNS.
Test [5] concerns A498 renal.
Test [6] relates to IGROV1 ovarian.
For test [7], the system named is TK-10 renal.
Test [8] concerns SK-OV-3 ovarian.
Test [9] deals with M14 melanoma.

Where “and” joins values, the source holds several entries; their conditions need not be identical. Identical values can stand only once.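 A five-concentration, 48-hour dose response in 96-well plates underlies each endpoint, interpolated linearly between surrounding concentrations. Abbreviation: GI50, concentration required for 50% inhibition of growth. TGI marks complete inhibition of growth.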 A value given as a limit tells only on which side of the number the result lay.

Regarding `CC1(C)OC(=O)C=C([O-])O1.CC1(C)OC(=O)C=C([O-])O1.O=S(=O)([O-])c1ccc([O-])c2ncccc12.O=S(=O)([O-])c1ccc([O-])c2ncccc12.[Ti+4]`, the GI50 in [1] was over 100 µM; in test [2] it was 47.8 µM; in [3], 79.9 µM; in test [4], over 100 µM; in test [5] it was over 100 µM; in [6], over 100 µM. Moreover, the GI50 is over 100 µM in [7], over 100 µM in [8] and 69.2 µM in [9]. In addition, the TGI in test [1], in test [2], in test [3], in [4], in test [5] and in [6] was over 100 µM throughout. Further, the TGI in test [7], in test [8] and in test [9] was over 100 µM throughout.

On to `C(CCC[Te][Te]CCCCCCOC1CCCCO1)CCOC1CCCCO1` (stereo not given), for which the TGI in test [2] came out at 46.6 µM; in test [3], 23.6 µM; in test [4], 29 µM; in [5], 37.8 µM; in test [6], 48 µM; in test [7], 95.1 µM. In addition, the figures for the TGI in [8] and in test [9] were 80.7 µM and over 100 µM, respectively.

For the molecule `C=C=C(CC)C(C(=O)OC)N(CC)CC` (stereo not given), the TGI in test [1], in [2], in test [3], in test [4], in [5] and in test [6] was over 100 µM throughout. In addition, the TGI in [7], in [8] and in [9] was over 100 µM in each case.

Regarding `COCC(=O)CP(=O)(OC)OC`, the TGI in test [1], in [2], in test [3], in [4], in test [5] and in [6] was over 100 µM throughout. Moreover, the TGI in [7], in test [8] and in [9] was over 100 µM each time.

Turning to `COc1ccc2c(c1OC)C1=C(C2=O)c2cc3c(cc2CCN1)OCO3`, the TGI is 59.3 µM in [1]; 83.9 µM in [2]; over 100 µM in test [3]; over 100 µM in test [5]; over 100 µM in test [6]; over 100 µM in test [7]. The TGI in test [9] is over 100 µM.

For `CC(=O)OC1CC2C(C)(C)C(=O)C=C[C@]2(C)C2CCC3(C)C(c4ccoc4)C(=O)[C@H]4O[C@]43[C@]12C` (stereo not given in full), the TGI in test [1] turned out to be 47.3 µM; in test [2] it was 46.6 µM; in test [3] it was 64.2 µM; in [4] it was 67.5 µM; in test [5] it was 36.8 µM; in test [6], 78.9 µM. In addition, the TGI was over 100 µM in test [7], over 100 µM in test [8] and 82.4 µM in test [9].

`Cc1c(C(=O)NCCO)[n+](=O)c2cc(Cl)ccc2n1[O-]`: the TGI in [1], in test [2], in test [3], in [4], in test [5] and in test [6] was over 100 µM each time. In addition, the TGI in test [7], in [8] and in [9] was over 100 µM each time.

Take `CN1NC2(CCCCC2)ON=C1c1ccccc1`: the TGI in test [2], in test [3], in test [4], in [5], in [6] and in test [7] was over 100 µM throughout. Moreover, the TGI in test [8] and in test [9] was over 100 µM throughout.

Take `O=c1cc2ccccc2nn1Cc1ccccc1Cl`: the TGI in [1], in test [3], in test [4], in [5], in [6] and in test [7] was over 100 µM throughout. The TGI in test [8] and in test [9] was over 100 µM in each case.

Take `O=C(O)/C(=C/c1c(O)ccc2ccccc12)c1csc(-c2nc(/C(=C\c3c(O)ccc4ccccc34)C(=O)O)cs2)n1`: the TGI in test [1] was found to be 43.8 µM; in test [2], 36.9 µM; in test [3], 23.3 µM; in [4], 43 µM; in test [5], 41.7 µM; in test [6], 24.1 µM. In addition, the figures for the TGI in test [7], in [8] and in test [9] were 58 µM, 26.8 µM and 25.4 µM, respectively.

In the case of `C1CCN(c2nsc(N3CCCCC3)n2)CC1`, the TGI in test [1], in [2], in test [3], in test [4], in test [5] and in [6] was over 100 µM in each case. The TGI in [7], in [8] and in test [9] was over 100 µM in each case.

Consider `CO/C1=C\C(C)=C\C(C)C(O)C(C)C/C(C)=C/C=C/C(OC)C(C(C)C(O)C(C)C2(O)CC(O)C(C)C(C(C)C)O2)OC1=O` (stereo not given), for which the TGI was 11.7 µM in [2]; 0.00785 µM and 0.0254 µM in test [3]; 24.9 µM in [4]; 23.7 µM in test [6]; 29.5 µM in test [7]; 33.6 µM in [8]. In test [9], this molecule returned a TGI of 0.00127 µM.

Take `CCOC(=O)C1(Cc2ccccc2)CCCCCN1` (stereo not given): the TGI in [3], in test [6], in [7], in [8] and in [9] was over 100 µM throughout.

`CCNC(=O)C#CC(=O)NCC`: the GI50 in [1] was over 10 µM; in test [2], over 10 µM; in test [3] it was over 10 µM; in test [4], over 10 µM; in test [5], over 100 µM; in test [7], over 10 µM. The GI50 in test [9] is over 10 µM. Moreover, the TGI in test [1] is over 62.8 µM; in test [2] it was over 100 µM; in test [3] it was over 100 µM; in test [4], over 100 µM; in test [5], over 100 µM; in test [6], over 100 µM. Moreover, the TGI in test [7], in test [8] and in test [9] was over 100 µM throughout.

Regarding `CCC(=O)C(C)C1=Nc2nnc(CCCCCCCc3nnc4n3C(=O)C(C(C)C(=O)CC)=N4)n2C1=O` (stereo not given), the TGI in test [1], in [2], in test [3], in test [4], in [5] and in [6] was over 100 µM in each case. In addition, the TGI in test [7], in [8] and in [9] was over 100 µM each time.
